Laboratory results: patent US7332476B2, “Pyridyl substituted ketolide antibiotics” (Novartis AG, priority 2003, dated 2008)
≈ marks a conversion by molar mass, not a printed value.

Legend:
Assay in all cases: MIC, broth microdilution (NCCLS)
Assay type in all cases: cell-based
[1] = test system: Streptococcus pneumoniae Stpn_Mef 5654; conditions: Table 10, Strain ID P (Table 8): Streptococcus pneumoniae Stpn_Mef 5654; in µg/mL (unit assumed)
Method in brief: (§1)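 Broth microdilution per NCCLS in cation-adjusted Mueller-Hinton broth, with 2-5% lysed horse blood added for S. pneumoniae. Inoculum 3×10^5–7×10^5 CFU/ml, 2-fold drug dilutions, 18-24 h at 35° C; S. pneumoniae under 5-10% CO2, others ambient air. MIC = lowest concentration preventing visible growth.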

[2] = test system: Streptococcus pyogenes Stpy_8668; conditions: Table 10, Strain ID G (Table 8): Streptococcus pyogenes Stpy_8668
Method in brief: as §1

[3] = test system: Streptococcus pneumoniae Stpn_280-962; conditions: Table 10, Strain ID O (Table 8): Streptococcus pneumoniae Stpn_280-962
Method in brief: as §1

[4] = test system: Streptococcus pneumoniae Stpn_49619; conditions: Table 10, Strain ID M (Table 8): Streptococcus pneumoniae Stpn_49619
Method in brief: as §1

[5] = test system: Enterococcus faecalis Enfa_bc 11148-2; conditions: Table 10, Strain ID F (Table 8): Enterococcus faecalis Enfa_bc 11148-2; in µg/mL (unit assumed)
Method: (§2) Strains. The bacterial isolates listed in Table 8 were cultivated from −70° C. frozen stocks by two consecutive overnight passages (P1, P2) at 35° C. on 5% blood agar (Remel, Lenexa, Kans.). Chocolate agar (Remel) is used for Haemophilus influenzae. H. influenzae and Streptococcus pneumoniae are incubated in 5-10% CO2
(§3) Drug Stock Preparation. To determine the amount of solvent to be used to give the desired final concentration, the formula “weight obtained in mg/final concentration in mg/ml” will be used. It will give the amount of solvent in ml needed to be added to give the desired concentration. For example, if 2.5 mg/ml is the desired concentration and the weight of compound is 13.7 mg, then the amount of solvent to be added is […]. Methanol is used as the solvent to dissolve the test compounds. Further dilution of stock is done in sterile, deionized water. Drug stocks are kept frozen at −70° C., protected from light.
(§4) Susceptibility Testing. MICs are determined by the broth microdilution method in accordance with the NCCLS guidelines. In brief, organism suspensions are adjusted to a 0.5 McFarland standard to yield a final inoculum between 3×10^5 and 7×10^5 CFU/ml. Drug dilutions and inocula are made in sterile, cation adjusted Mueller-Hinton Broth (CAMHB) (Remel) for all but S. pneumoniae [CAMHB with 2-5% lysed horse blood (Remel)] and H. influenzae [Haemophilus Test Medium (Remel)]. An inoculum volume of 100 μl is added to wells containing 100 μl of broth with 2-fold serial dilutions of drug. All inoculated microdilution trays are incubated in ambient air at 35° C. for 18-24 hours, except for S. pneumoniae, and H. influenzae (both at 5-10% CO2).
(§5) Following appropriate incubation, the MIC is determined and the MIC is defined as the lowest concentration of the drug that prevented visible growth. […] Antibacterial activity of representative compounds of the invention were compared against telitromycin.

[6] = test system: Haemophilus influenzae Hain_960820544-3; conditions: Table 10, Strain ID J (Table 8): Haemophilus influenzae Hain_960820544-3; in µg/mL (unit assumed)
Method: as §2, §3, §4, §5

[7] = test system: Haemophilus influenzae Hain_960730503-3; conditions: Table 10, Strain ID I (Table 8): Haemophilus influenzae Hain_960730503-3; in µg/mL (unit assumed)
Method: as §2, §3, §4, §5

[8] = test system: Haemophilus influenzae Hain_953460299-3; conditions: Table 10, Strain ID K (Table 8): Haemophilus influenzae Hain_953460299-3; in µg/mL (unit assumed)
Method: as §2, §3, §4, §5

[9] = test system: Staphylococcus aureus Stau_33591; conditions: Table 10, Strain ID B (Table 8): Staphylococcus aureus Stau_33591; unit assumed
Method: as §2, §3, §4, §5

[10] = test system: Haemophilus influenzae Hain_2762; conditions: Table 10, Strain ID L (Table 8): Haemophilus influenzae Hain_2762; in µg/mL (unit assumed)
Method: as §2, §3, §4, §5

[11] = test system: Staphylococcus aureus Stau_29213; conditions: Table 10, Strain ID A (Table 8): Staphylococcus aureus Stau_29213; in µg/mL (unit assumed)
Method in brief: as §1

[12] = test system: Staphylococcus epidermidis Step_14990; conditions: Table 10, Strain ID C (Table 8): Staphylococcus epidermidis Step_14990; in µg/mL (unit assumed)
Method in brief: as §1

[13] = test system: Streptococcus pneumoniae Stpn_Mef S 3427; conditions: Table 10, Strain ID Q (Table 8): Streptococcus pneumoniae Stpn_Mef S 3427; in µg/mL (unit assumed)
Method in brief: as §1

[14] = test system: Enterococcus faecalis Enfa_29212; conditions: Table 10, Strain ID E (Table 8): Enterococcus faecalis Enfa_29212
Method in brief: as §1

[15] = test system: Staphylococcus epidermidis Step_f50654; conditions: Table 10, Strain ID D (Table 8): Staphylococcus epidermidis Step_f50654; in µg/mL (unit assumed)
Method in brief: as §1

[16] = test system: Haemophilus influenzae Hain_49247; conditions: Table 10, Strain ID H (Table 8): Haemophilus influenzae Hain_49247; unit assumed
[17] = test system: Streptococcus pneumoniae Stpn_297-749; conditions: Table 10, Strain ID N (Table 8): Streptococcus pneumoniae Stpn_297-749
Method in brief: as §1

[18] = test system: Streptococcus pneumoniae Stpn_Erm S 4297; conditions: Table 10, Strain ID R (Table 8): Streptococcus pneumoniae Stpn_Erm S 4297
Method in brief: as §1

| Compound | MIC [1] | MIC [2] | MIC [3] | MIC [4] | MIC [5] | MIC [6] | MIC [7] | MIC [8] | MIC [9] [µg/mL] | MIC [10] | MIC [11] | MIC [12] | MIC [13] | MIC ([14]; in µg/mL (unit assumed)) | MIC [15] | MIC [16] [µg/mL] | MIC [17] | MIC ([2]; unit assumed) [µg/mL] | MIC ([18]; unit assumed) [µg/mL] | other results |
| --- | --- | --- | --- | --- | --- | --- | --- | --- | --- | --- | --- | --- | --- | --- | --- | --- | --- | --- | --- | --- |
| C=C[C@]12OC(=O)N(CCCCn3cnc(-c4ccc(N(C)C)nc4)c3)[C@@H]1[C@@H](C)C(=O)[C@H](C)C[C@](C)(OC)[C@H](OC1O[C@H](C)C[C@H](N(C)C)[C@H]1O)[C@@H](C)C(=O)[C@@H](C)C(=O)O[C@@H]2CC (some centres unmarked) [XXIV] | 1.56 | =0.05 | =0.05 | =0.05 | 0.78 | 6.25 | 12.5 | 12.5 | > 50 | 1.56 | 0.2 | 0.2 | 0.4 | 0.1 | 0.2 | 12.5 (≈ 14.4 µM) | =0.05 | – | – | – |
| C=C[C@]12OC(=O)N(CCCCn3cc(-c4ccc(OC)nc4)nc3C)[C@@H]1[C@@H](C)C(=O)[C@H](C)C[C@](C)(OC)[C@H](OC1O[C@H](C)C[C@H](N(C)C)[C@H]1O)[C@@H](C)C(=O)[C@@H](C)C(=O)O[C@@H]2CC (some centres unmarked) [XXVII] | 1.56 | – | =0.05 | =0.05 | 6.25 | 6.25 | 12.5 | 12.5 | > 50 | 1.56 | 0.2 | 0.2 | 0.2 | 0.2 | 0.2 | 6.25 (≈ 7.2 µM) | =0.05 | 0.1 (≈ 0.115 µM) | – | – |
| CC[C@H]1OC(=O)[C@H](C)C(=O)[C@H](C)[C@@H](OC2O[C@H](C)C[C@H](N(C)C)[C@H]2O)[C@@](C)(OC)C[C@@H](C)C(=O)[C@H](C)[C@@H]2[C@@H]1OC(=O)N2CCCCn1cnc(-c2ccc(C)nc2)c1 (some centres unmarked) [XXV] | 1.56 | =0.05 | =0.05 | =0.05 | 3.13 | 6.25 | 6.25 | 6.25 | > 50 | 1.56 | 0.2 | 0.2 | .04 | 0.1 | 0.2 | 3.13 (≈ 3.85 µM) | =0.05 | – | – | – |
| C=C[C@]12OC(=O)N(CCCCn3cnc(-c4ccc(F)nc4)c3)[C@@H]1[C@@H](C)C(=O)[C@H](C)C[C@](C)(OC)[C@H](OC1O[C@H](C)C[C@H](N(C)C)[C@H]1O)[C@@H](C)C(=O)[C@@H](C)C(=O)O[C@@H]2CC (some centres unmarked) [XIX] | 0.4 | =0.05 | =0.05 | =0.05 | 0.4 | 6.25 | 12.5 | 6.25 | > 50 | 1.56 | 0.1 | 0.1 | 0.1 | 0.1 | 0.1 | 3.13 (≈ 3.72 µM) | =0.05 | – | – | MIC [18]: =0.05 |
| CC[C@H]1OC(=O)[C@H](C)C(=O)[C@H](C)[C@@H](OC2O[C@H](C)C[C@H](N(C)C)[C@H]2O)[C@@](C)(OC)C[C@@H](C)C(=O)[C@H](C)[C@H]2N(CCCCn3cnc(-c4ccc(Cl)nc4)c3)C(=O)O[C@]12CC (some centres unmarked) [XXI] | 0.78 | =0.05 | =0.05 | =0.05 | 1.56 | 6.25 | 6.25 | 6.25 | > 50 | 0.78 | 0.1 | 0.1 | 0.2 | – | 0.1 | 3.13 (≈ 3.64 µM) | =0.05 | – | 0.1 (≈ 0.116 µM) | MIC [14]: =0.05 |
| C=C[C@]12OC(=O)N(CCCCn3cnc(-c4ccc(OCC)nc4)c3)[C@@H]1[C@@H](C)C(=O)[C@H](C)C[C@](C)(OC)[C@H](OC1O[C@H](C)C[C@H](N(C)C)[C@H]1O)[C@@H](C)C(=O)[C@@H](C)C(=O)O[C@@H]2CC (some centres unmarked) [XXII] | 0.78 | – | =0.05 | =0.05 | 25 | 3.13 | 6.25 | 12.5 | > 50 | 1.56 | 0.4 | 0.4 | 0.78 | 0.2 | 0.4 | 6.25 (≈ 7.2 µM) | =0.05 | 0.1 (≈ 0.115 µM) | 1.56 (≈ 1.8 µM) | – |
| C=C[C@]12OC(=O)N(CCCCn3cnc(-c4ccc(OC)nc4)c3C)[C@@H]1[C@@H](C)C(=O)[C@H](C)C[C@](C)(OC)[C@H](OC1O[C@H](C)C[C@H](N(C)C)[C@H]1O)[C@@H](C)C(=O)[C@@H](C)C(=O)O[C@@H]2CC (some centres unmarked) [XXVI] | 1.56 | – | =0.05 | =0.05 | 1.56 | 12.5 | 12.5 | 12.5 | > 50 | 1.56 | 0.2 | 0.1 | 0.2 | 0.2 | 0.4 | 6.25 (≈ 7.2 µM) | =0.05 | 0.1 (≈ 0.115 µM) | – | – |
| CC[C@H]1OC(=O)[C@H](C)C(=O)[C@H](C)[C@@H](OC2O[C@H](C)C[C@H](N(C)C)[C@H]2O)[C@@](C)(OC)C[C@@H](C)C(=O)[C@H](C)[C@H]2N(CCCCn3cnc(-c4ccc(F)nc4)c3)C(=O)O[C@]12CC (some centres unmarked) [XV] | 0.4 | =0.05 | =0.05 | =0.05 | 0.78 | 6.25 | 6.25 | 3.13 | > 50 | 0.78 | 0.4 | 0.2 | 0.1 | 0.1 | 0.2 | 3.13 (≈ 3.71 µM) | =0.05 | – | 0.1 (≈ 0.118 µM) | – |
